Results on three compounds are retold here after ChEMBL document CHEMBL1122930, “Synthesis and pharmacological characterization of 5-(2-dodecylphenyl)-4,6-dithianonanedioic acid and 5-[2-(8-phenyloctyl)phenyl]-4,6-dithianonanedioic acid: prototypes of a novel class of leukotriene antagonists” (J Med Chem, 1985).

The target in test [1] is T1, Cysteinyl leukotriene receptor 1 (Cavia porcellus, UniProt Q2NNR5).
T1 sequence (Q2NNR5 whole entry): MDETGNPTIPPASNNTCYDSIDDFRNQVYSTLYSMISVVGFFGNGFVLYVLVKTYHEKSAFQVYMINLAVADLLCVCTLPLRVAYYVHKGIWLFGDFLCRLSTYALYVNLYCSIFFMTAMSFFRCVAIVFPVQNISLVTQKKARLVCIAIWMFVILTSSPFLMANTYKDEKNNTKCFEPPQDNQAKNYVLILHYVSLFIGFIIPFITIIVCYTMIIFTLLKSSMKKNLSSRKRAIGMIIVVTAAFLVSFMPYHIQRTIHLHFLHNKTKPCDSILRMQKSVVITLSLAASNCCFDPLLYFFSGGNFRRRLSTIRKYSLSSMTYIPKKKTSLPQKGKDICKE
The experiment in a line: Binding constant was determined as affinity to displace [3H]LTD4 from Cysteinyl leukotriene D4 receptor on guinea pig lung membrane. Type of test: tissue-based.

Test [2] addresses T2, Cysteinyl leukotriene receptor 1 (Cavia porcellus) (UniProt Q2NNR5).
T2 sequence (whole entry): T1 sequence (Q2NNR5 whole entry)
The experiment in a line: Dissociation constant towards Cysteinyl leukotriene D4 receptor of guinea pig.

The test system of test [3] is Cavia porcellus. The experiment in a line: Antagonistic effect on LTD4 induced change in lung compliance (CDYN) in anesthetized guinea pig, at dose 5 ug/kg, administered intravenously. Type of test: functional. The following applies: iv.
For test [4], the system named is Cavia porcellus. The experiment in a line: Antagonistic effect on LTD4 induced change in air way resistance (RL) in anesthetized guinea pigs, at dose 5 ug/kg, administered intravenously. The settings on record: iv. Type of test: functional.
Test [5] has as its system Cavia porcellus. The experiment in a line: Antagonistic effect on LTD4 induced change in lung compliance (CDYN) in anesthetized guinea pigs, at dose 5 ug/kg, administered intravenously. The following applies: iv. Format: functional.
Test [6] has as its target T2, Cysteinyl leukotriene receptor 1 (Cavia porcellus).
Test [7] relates to Cavia porcellus. The experiment in a line: Antagonistic effect on LTD4 induced changes in dynamic lung compliance (CDYN) in anesthetized guinea pigs, at dose 5 mg/kg when administered intravenously. The settings on record: route intravenous. Format: functional.
Test [8] deals with Cavia porcellus. The experiment in a line: Antagonistic effect on LTD4 induced change in airway resistance (RL) in anesthetized guinea pigs, at dose 5 mg/kg when administered intravenously. Type of test: functional. The following applies: route intravenous.
Test [9] concerns the target T2, Cysteinyl leukotriene receptor 1 (Cavia porcellus). The source holds these as a separate data set.

Where a name gives a salt, the structure may show the parent alone.

Consider `CCCCCCCCCCCCc1ccccc1C(SCCC(=O)O)SCCC(=O)O`, for which the Ki in test [1] turned out to be 445 nM. The same compound had a -Log K B in [2] of 6. The inhibition in vivo at 0.005 mg/kg was 83% in [3] and 97% in [4].

Regarding `O=C(O)CCSC(SCCC(=O)O)c1ccccc1CCCCCCCCc1ccccc1`, the Ki in [1] was 245 nM. Also, the inhibition in vivo at 0.005 mg/kg in test [5] stood at 95%; in test [4], 100%. In [6], this compound came in with a -Log K B of 6.7.

In the case of `CCCc1c(OCC(O)COc2ccc3c(=O)cc(C(=O)O)oc3c2CCC)ccc(C(C)=O)c1O` (stereo unspecified) [FPL-55712 SODIUM SALT], the inhibition in vivo at 5 mg/kg in test [7] and in test [8] was 97% throughout. In addition, the -Log K B in [9] came to 6.8.

What is called Ki is the dissociation constant of the complex between target and ligand, obtained from inhibition or displacement. A lower Ki goes with higher affinity. As usually defined, the inhibition in vivo is the relative decrease from the control value, in per cent.
